Values after ≈ are worked out from the molar mass of the structure shown. Bridge positions count the residues as written; N and C are the ends. Square brackets hold non-standard residues; d marks the D form. Peptide text beside a SMILES is read from it. I, II: the chains in the order shown. * marks the point of attachment. Quinaldoyl(3-OH) = O=C(c1nc2ccccc2cc1O)*; NMeV = CN[CH](C(=O)O)C(C)C; Pip = O=C(O)[CH]1CCCCN1; Sar = CNCC(=O)O
Legend:
S. aureus 209P-A9497 = test: Antibacterial activity, serial two-fold agar dilution method; type: cell-based; details: Staphylococcus aureus, read-out: Minimum Inhibitory Concentration (MIC)
Procedure: (§1) The antibacterial activities of sandramycin were determined by a serial two-fold agar dilution method. The results are shown in Table 5 in comparison with the activities of luzopeptin A and echinomycin.

[1] = test system: gram-positive organisms such as Bacillus subtilis and Staphylococcus aureus as well as Streptococcus faecalis; test: Antibacterial activity, serial two-fold agar dilution method (statement in words); type: cell-based
Procedure: as §1

P-388 leukemia = test: Transplantable mouse tumor P-388 leukemia; type: in vivo, mouse (CDF1 female mice); details: for MST (median survival time): control MST 9.0 days
Procedure: The methodology used generally followed the protocols of the National Cancer Institute [Cancer Chemotherapy Rep. Part 3, 3, 1-103 (1972)]. The essential experimental details are given at the bottom of Table 6. Two different dose regimens were tested: single dose on day 1 and daily for 5 days. With both schedules, the optimum dose appears to be about 0.2 mg/kg/injection.
Tumor inoculum: 10^6 ascites cells implanted i.p.
Evaluation: MST = median survival time
Effect: % T/C ≥ (MST treated/MST control) × 100
Criteria: % T/C = 125 considered significant antitumor activity
AWC: average weight change (treatedcontrol) in grams (on day 4)

Work on CS[C@H]1SC[C@H]2C(=O)N(C)[C@@H](C(C)C)C(=O)OC[C@@H](NC(=O)c3cnc4ccccc4n3)C(=O)N[C@@H](C)C(=O)N(C)[C@@H]1C(=O)N(C)[C@@H](C(C)C)C(=O)OC[C@@H](NC(=O)c1cnc3ccccc3n1)C(=O)N[C@@H](C)C(=O)N2C [Echinomycin, reference compound] yielded an MIC (S. aureus 209P-A9497) of 0.012 µg/mL (≈ 0.0109 µM).

CC(C)C1C(=O)OCC(NC(=O)c2nc3ccccc3cc2O)C(=O)N2CCCCC2C(=O)NCC(=O)N(C)CC(=O)N(C)C(C(C)C)C(=O)OCC(NC(=O)c2nc3ccccc3cc2O)C(=O)N2CCCCC2C(=O)NCC(=O)N(C)CC(=O)N1C (stereo not drawn) [Sandramycin] (I: {Quinaldoyl(3-OH)}-S[Pip]G[Sar][NMeV] / II: {Quinaldoyl(3-OH)}-S[Pip]G[Sar][NMeV]; ester I:1-II:C, I:C-II:1; configuration not given here) was tested, and the MIC (S. aureus 209P-A9497) was 0.012 µg/mL (≈ 0.00983 µM), the antibacterial activity [1] was “strongly inhibitory” and the optimum dose (P-388 leukemia; both schedules: single dose on day 1 and daily for 5 days, IP) was “about 0.2 mg/kg/injection”. The “AWC (average weight change) Day 4” value (P-388 leukemia; d. 1, IP, 0.025 mg/kg/inj.) was -0.2 gm, the “MST (median survival time)” value (P-388 leukemia; d. 1, IP, 0.025 mg/kg/inj.) was 9.5 days and the “AWC (average weight change) Day 4” value (P-388 leukemia; d. 1, IP, 0.05 mg/kg/inj.) was -0.6 gm. The “MST (median survival time)” value (P-388 leukemia; d. 1, IP, 0.05 mg/kg/inj.) was 10.0 days, the “AWC (average weight change) Day 4” value (P-388 leukemia; d. 1, IP, 0.1 mg/kg/inj.) was -0.9 gm and the “MST (median survival time)” value (P-388 leukemia; d. 1, IP, 0.1 mg/kg/inj.) was 11.0 days. The “AWC (average weight change) Day 4” value (P-388 leukemia; d. 1, IP, 0.2 mg/kg/inj.) was -1.4 gm, the “AWC (average weight change) Day 4” value (P-388 leukemia; d. 1, IP, 0.4 mg/kg/inj.) was -0.7 gm and the “MST (median survival time)” value (P-388 leukemia; d. 1, IP, 0.4 mg/kg/inj.) was 11.0 days. The “AWC (average weight change) Day 4” value (P-388 leukemia; d. 1, IP, 0.8 mg/kg/inj.) was -1.6 gm, the “MST (median survival time)” value (P-388 leukemia; d. 1, IP, 0.8 mg/kg/inj.) was 10.0 days and the “AWC (average weight change) Day 4” value (P-388 leukemia; d. 1, IP, 1.6 mg/kg/inj.) was -1.3 gm. For the same compound, the “AWC (average weight change) Day 4” value (P-388 leukemia; d. 1, IP, 3.2 mg/kg/inj.) was -2.8 gm, the “MST (median survival time)” value (P-388 leukemia; d. 1, IP, 3.2 mg/kg/inj.) was “Toxic” and the “AWC (average weight change) Day 4” value (P-388 leukemia; d. 1→5, IP, 0.0125 mg/kg/inj.) was -0.9 gm. The “Survivors Day 5” value (P-388 leukemia; d. 1→5, IP, 0.0125 mg/kg/inj.) was 6/6, the “AWC (average weight change) Day 4” value (P-388 leukemia; d. 1→5, IP, 0.025 mg/kg/inj.) was -1.4 gm and the “MST (median survival time)” value (P-388 leukemia; d. 1→5, IP, 0.025 mg/kg/inj.) was 10.0 days. For the same compound, the “AWC (average weight change) Day 4” value (P-388 leukemia; d. 1→5, IP, 0.05 mg/kg/inj.) was -1.8 gm, the “MST (median survival time)” value (P-388 leukemia; d. 1→5, IP, 0.05 mg/kg/inj.) was 8.5 days and the “AWC (average weight change) Day 4” value (P-388 leukemia; d. 1→5, IP, 0.1 mg/kg/inj.) was -0.8 gm. For the same compound, the “AWC (average weight change) Day 4” value (P-388 leukemia; d. 1→5, IP, 0.2 mg/kg/inj.) was -1.7 gm, the “MST (median survival time)” value (P-388 leukemia; d. 1→5, IP, 0.2 mg/kg/inj.) was 12.0 days and the “AWC (average weight change) Day 4” value (P-388 leukemia; d. 1→5, IP, 0.4 mg/kg/inj.) was -1.3 gm. For the same compound, the “MST (median survival time)” value (P-388 leukemia; d. 1→5, IP, 0.4 mg/kg/inj.) was 11.0 days, the “AWC (average weight change) Day 4” value (P-388 leukemia; d. 1→5, IP, 0.8 mg/kg/inj.) was -1.4 gm and the “MST (median survival time)” value (P-388 leukemia; d. 1→5, IP, 0.8 mg/kg/inj.) was 6.0 days. For the same compound, the “AWC (average weight change) Day 4” value (P-388 leukemia; d. 1→5, IP, 1.6 mg/kg/inj.) was -1.7 gm and the “MST (median survival time)” value (P-388 leukemia; d. 1→5, IP, 1.6 mg/kg/inj.) was “Toxic”.
